Ends that are not written are not given here.
Experiments:
Trio DH2-PH2 = target: T1, Trio DH2-PH2 (Homo sapiens, UniProt O75962); experiment: [3H]-GDP dissociation assay on Trio DH2-PH2; assay type: biochemical; conditions: 0.15 μM GST-Trio DH2-PH2, 3 μM GST-TRIP inhibitors
T1 construct: made in house
Method: Each residue of the active core of TRIPα (amino acids 9-36; Schmidt et al., 2002) was mutated to alanine, except cysteines which were changed into serines. All TRIPα mutants were then tested for their inhibitory activity on Trio DH2-PH2 in [3H]-GDP dissociation assays. This analysis mapped two essential regions of TRIPα, amino acids 9-20 and 28-33, where single mutations were sufficient to impair inhibition (see table 3).
The inventors next reasoned that peptides that would bind stronger to the GEF domain may also be better at inhibiting its activity. […] These clones were then produced as GST fusions and analyzed for their inhibition of Trio DH2-PH2, using the [3H]-GDP dissociation assay. […]
An aptamer library derived from TRIPα was created by PCR-based random mutagenesis of TRIPα inserted into the yeast two-hybrid vector pPC86. […] Selected peptides were then produced as GST-fusions and analyzed for their inhibition of Trio DH2-PH2 using the [3H]-GDP dissociation assay.
Radioactive [3H]-GDP dissociation assays were performed as described (Schmidt et al., 2002). […] Inhibition efficiency is expressed as the ratio between [3H]-GDP-bound RhoA at 15 and 0 min. Apparent inhibition constants (Kiapp) of TRIP-like peptides were determined from kobs values obtained at increasing peptide concentrations using the above fluorescence nucleotide exchange assay. […]

p115RhoGEF = target: T2, p115RhoGEF (Homo sapiens, UniProt Q92888); experiment: mant-GTP fluorescence kinetics specificity assay, RhoA/p115RhoGEF; assay type: biochemical; conditions: peptide 20 μM, 0.5 μM GEF, 1 μM RhoA
T2 construct: GST (N); made in house; host or cells: baculovirus system
T2 sequence (Q92888 1-912): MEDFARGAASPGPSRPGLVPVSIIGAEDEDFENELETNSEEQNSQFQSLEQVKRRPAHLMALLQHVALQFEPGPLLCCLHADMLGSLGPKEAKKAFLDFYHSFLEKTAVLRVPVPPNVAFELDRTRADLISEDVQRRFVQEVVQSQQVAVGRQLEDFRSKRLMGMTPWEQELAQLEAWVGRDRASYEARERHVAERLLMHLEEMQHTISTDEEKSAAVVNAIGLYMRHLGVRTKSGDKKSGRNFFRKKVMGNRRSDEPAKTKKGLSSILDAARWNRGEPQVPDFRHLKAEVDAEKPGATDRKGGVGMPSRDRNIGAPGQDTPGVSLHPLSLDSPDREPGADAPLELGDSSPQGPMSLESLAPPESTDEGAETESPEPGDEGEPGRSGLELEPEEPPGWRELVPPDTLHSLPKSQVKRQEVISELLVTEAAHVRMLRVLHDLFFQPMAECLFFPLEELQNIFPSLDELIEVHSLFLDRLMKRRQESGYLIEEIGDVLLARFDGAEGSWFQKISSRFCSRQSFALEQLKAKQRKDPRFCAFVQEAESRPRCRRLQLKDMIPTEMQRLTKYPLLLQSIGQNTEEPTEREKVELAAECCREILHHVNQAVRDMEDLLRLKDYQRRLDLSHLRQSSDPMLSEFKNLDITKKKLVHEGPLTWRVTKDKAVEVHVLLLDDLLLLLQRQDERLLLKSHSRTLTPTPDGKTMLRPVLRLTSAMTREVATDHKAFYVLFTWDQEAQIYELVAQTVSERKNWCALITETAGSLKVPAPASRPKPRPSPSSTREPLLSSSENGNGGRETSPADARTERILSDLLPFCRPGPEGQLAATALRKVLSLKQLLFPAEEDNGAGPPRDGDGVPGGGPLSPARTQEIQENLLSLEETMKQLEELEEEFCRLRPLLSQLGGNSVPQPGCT
Method: (§1) Figures represent the comparison of TRIPE32G and TRIPT16M/L17S inhibition efficiency on different GTPase/RhoGEF systems, using 1 μM GTPase and 0.5 μM GEF as follows:
(§2) In each assay, the peptides were used at a concentration of 20 μM, corresponding to a 40 fold molar excess of inhibitor versus GEF. All fluorescence kinetics assays were performed using 1 μM mant-GTP. Results are expressed as Relative Fluorescence Units (RFU) versus time. The reaction performed in the absence of GEF reflects the spontaneous exchange activity of the GTPase.
(§3) Radioactive [3H]-GDP dissociation assays were performed as described (Schmidt et al., 2002). […] Inhibition efficiency is expressed as the ratio between [3H]-GDP-bound RhoA at 15 and 0 min. Apparent inhibition constants (Kiapp) of TRIP-like peptides were determined from kobs values obtained at increasing peptide concentrations using the above fluorescence nucleotide exchange assay. Kiapp was calculated from the hyperbolic fit of kobs values as a function of the inhibitor concentration as described (Zeeh et al., 2006). TRIP-like peptide specificity was assayed using mant-GTP fluorescence kinetics (λex=360 nm, λem=460 nm) in a FLX800 Microplate Fluorescence Reader (BioTek Instruments). […] The exchange reaction was initiated by addition of 1 μM RhoA or RhoG and monitored for 10 min.

p63RhoGEF = target: T3, p63RhoGEF (Homo sapiens, UniProt Q86VW2); experiment: mant-GTP fluorescence kinetics specificity assay, RhoA/p63RhoGEF; assay type: biochemical; conditions: peptide 20 μM, 0.5 μM GEF, 1 μM RhoA
T3 construct: GST-p63RhoGEF (DH domain) and GST-RhoG were purified as described previously; GST (N); made in house
Method: as §1, §2, §3

[1] = tested on: Tgat-mediated RhoA activation; experiment: RhoA activation assay (GST-RBD pull-down) in NIH3T3 cells stably expressing Tgat; assay type: cell-based; conditions: NIH3T3-Tgat cells transfected with GFP-tagged peptide
Method: The RhoA activation in NIH3T3-Tgat cells stably transfected with GFP, GFP-TRIPE32G or GFPTRIP T16M/L17S was assayed by the GST-RBD-pulldown assay as described in FIG. 2A.
The level of GTP-bound RhoA was measured by a GST pulldown assay as described (Schmidt et al., 2002). Briefly, cell lysates were incubated with glutathione beads coated with the recombinant Rho-binding domain (RBD) of the RhoA specific effector Rhotekin (Cytoskeleton Inc.).

T3 sequence (Q86VW2 160-336 limits assumed): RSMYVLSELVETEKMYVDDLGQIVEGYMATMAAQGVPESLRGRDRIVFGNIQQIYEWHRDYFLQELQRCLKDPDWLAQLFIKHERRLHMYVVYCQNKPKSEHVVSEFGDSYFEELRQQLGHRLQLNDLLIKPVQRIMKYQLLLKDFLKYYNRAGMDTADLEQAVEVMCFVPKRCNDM

Row | Substance | Inhibition efficiency on Trio DH2-PH2 compared to TRIPα (Trio DH2-PH2) | effect on exchange activity of p115RhoGEF/RhoA (p115RhoGEF) | effect on exchange activity of p63RhoGEF/RhoA (p63RhoGEF) | inhibition of Tgat-mediated activation of RhoA in cells [1]
1 | GST-TRIPE32G (AREGADGAICGYNLATLVMLGPSERVFCPLCGPCSSDIYELM; cysteine pairing not given here; also: GST fusion) | highest inhibition on Trio DH2-PH2 | no effect | no effect | more efficient than TRIPT16M/L17S
2 | GST-TRIPT16M/L17S | highest inhibition on Trio DH2-PH2 | no effect | no effect | TRIPE32G was more efficient than TRIPT16M/L17S
